# Laboratory results reported in patent US20230145868A1, “UREA INHIBITORS OF MICRO-RNA” (Board of Regents, The University of Texas System, priority 2020, published 2023).
# Columns and labels:
# Type in all cases: cell-based, human
# AsPC1 cell line = assay: Cell proliferation assay (WST-8 or MTS), AsPC1
# Protocol: (§1) IC50 dose-response curves were determined using the cell proliferation assay system. Briefly, 5,000 or 10,000 cells of each cell line were plated in 96-well microculture plates in replicates of either 4 or 6. When cells became adherent, either 5 or 10 sequentially decreasing doses of the small molecule miRNA inhibitor were diluted into new media and added to individual wells. After either 24 or 48 hours, of a tetrazolium salt such as MTS, MTT, or WST-8 was added to each well at the same time of day as treatment and incubated for either 2 or 3 h at 37° C. The OD, measuring at the appropriate wavelength for the dye, was read at on a microplate spectrophotometer.
# Cell proliferation is determined using a colorimetric assay. A tetrazolium salt such as MTS, MTT, or WST-8 is reduced by dehydrogenase activities in cells to give a formazan dye, which is soluble in the tissue culture media. The amount of the formazan dye (generated by the activities of dehydrogenases in cells, and directly proportional to the number of living cells) is measured after 3 h of incubation. The OD is read at 450 nm on a microplate spectrophotometer and growth values (%) are calculated as (OD treated cells/OD untreated cells)×100. The experiments are performed in triplicate. […] The OD is read at 450/550 nm on a microplate spectrophotometer, after one to seven days of the treatment. […]
# AGS cell line = assay: Cell proliferation assay (WST-8 or MTS), AGS
# Protocol: as §1
# Cell proliferation is determined using a colorimetric assay. A tetrazolium salt such as MTS, MTT, or WST-8 is reduced by dehydrogenase activities in cells to give a formazan dye, which is soluble in the tissue culture media. The amount of the formazan dye (generated by the activities of dehydrogenases in cells, and directly proportional to the number of living cells) is measured after 3 h of incubation. The OD is read at 450 nm on a microplate spectrophotometer and growth values (%) are calculated as (OD treated cells/OD untreated cells)×100. The experiments are performed in triplicate. Cell viability is also tested by bromodeoxyuridine (BrdU) test according to the instructions. 2000 MM231, MCF7 and HepG2 cells are seeded to 96-well plate. After 24 h, 10 μM DMSO or linifanib is added to each well. The OD is read at 450/550 nm on a microplate spectrophotometer, after one to seven days of the treatment. The experiments are performed in triplicate.
# pre-miR-10b = assay: RT-qPCR of precursor miR-10b; settings: normalized to U6, vs DMSO
# Protocol: Potential small molecule miRNA inhibitors were tested in MCF7 cells, a metastatic cell line (MM231) and an HCC cell line (HepG2) through RT-qPCR. Cells were seeded in 12-well plates 24 h before treatments at a confluence of 50-60%. They were treated at a concentration of 10 μM linifanib (positive control) or DMSO (negative control), and RNA was collected after 24 and 48 h. MicroRNA expression was tested using TaqMan microRNA assay (Applied Biosystems). The cDNA was synthesized using TaqMan Reverse Transcription Reagents kit (Applied Biosystems) and employed for quantitative RT-qPCR analysis together with TaqMan probes and SsoFastSupermix (Bio-rad). Primers and probes were purchased for hsa-miR-10b, hsa-pri-miR-10b, U6, and U48 snRNA that was used as an internal control.
# To detect the levels of the precursor sequences, cDNA was synthesized using the SuperScript III cDNA kit (Invitrogen). Diluted cDNA was used for RT-qPCR analysis using iQ SYBR Green Supermix (Bio-Rad) with primers designed by in-house. Experiments were performed in triplicate; treated samples were compared to the DMSO-treated controls and normalized to the internal control. Relative expression levels were calculated using the 2-ΔCt method.
# miR-10b = assay: qRT-PCR of miR-10b in cerebral organoids co-cultured with brain cancer cells; settings: 10 μM, 48 h
# Description: For co-culturing with cerebral organoids, the brain cancer cell lines U251 and LN229 were transduced with an RFP lentiviral vector expressing mCherry and luciferase, and sorted twice via an Aria Influx Cell Sorter.
# Human induced pluripotent stem cell (iPSC) derived cerebral organoids were obtained, courtesy of Dr. Sanjay Singh and Dr. Frederick Lang in the Department of Neurosurgery at MD Anderson Cancer Center. Organoids were maintained in a specialized neural based media on a shaker inside a 37° C. incubator. After maturation, organoids were moved to 24-well ultra-low attachment plates, and individually co-cultured with 5×10^5−1×10^6 cells from brain cancer cell lines for approximately 48-72 h, until RFP signal was clear on the surface of the organoid, indicating cell attachment. Organoids were then moved to 6 well plates and grouped into triplicates within the well. The treatment regimen of control, and 4 was started, at an analogous schedule to in vitro experiments. For fixation and embedding for in situ hybridization, the organoids were processed using 4% PFA and placed in OCT in −80° C. for sectioning.
# PTEN = assay: Proteomics (RPPA), PTEN expression; set-up: dose or concentration left out as unconfirmed; settings: U251
# Protocol: Proteomics analysis was conducted at the Reverse Phase Protein Array Core facility at MD Anderson Cancer Center. Briefly, controls and treated samples were analyzed in triplicate for 486 unique antibodies. The outputs were then normalized for protein loading and transformed to the linear value, and the normalized data was logy transformed (log2(x+1)) and sorted by FDR-adjusted p-values with a significance level of p<0.05. Differentially expressed proteins between groups were identified using the moderated t-test from LIMMA package. […] Analyses and graphical representations were carried out in R. When preparing the data for analysis, the loge fold change was calculated and adjusted p-value was used for analysis. Gene symbols were converted using the DAVID bioinformatics resource and the clusterProfiler data visualization and analysis package was used for pathway enrichment analysis. For pathway analysis, the Hallmark gene set and Gene Ontology was used for gene set and pathway enrichment.
# PDGF = assay: Western blot, PDGF expression; settings: LN229 and U251 brain cancer cell lines
# Protocol: Proteins are collected from cultured cells and lysed with 10× Lysis Buffer (Cell Signaling) freshly supplemented with a complete protease inhibitor cocktail and phosphatase inhibitors (Sigma). Bradford assay is used to measure protein concentration. Proteins are separated by polyacrylamide gel (Bio-rad) electrophoresis and were transferred to a 0.2 μm nitrocellulose membrane (Bio-rad). Quantification of protein expression was conducted using the image analysis software ImageJ.
# [1] = 5 and 10 μM, beginning at 48 h of treatment
Structure (SMILES),"proliferation (AsPC1 cell line; 10 μM, vs DMSO)","proliferation (AGS cell line; 10 μM, 5 μM and 2 μM, vs DMSO)",expression of pre-miR-10b (pre-miR-10b; AGS gastric cell line),expression of pre-miR-10b (pre-miR-10b; AsPC1 pancreatic cell line),"proliferation (MTS), every 24 h over 96 h (AsPC1 cell line; [1])","cell viability (proliferation ability) (AGS cell line; 10 μM, vs DMSO)","proliferation (MTS), every 24 h over 96 h (AGS cell line; [1])",miR-10b levels (qRT-PCR) (miR-10b; cerebral organoids co-cultured with LN229),miR-10b levels (qRT-PCR) (miR-10b; cerebral organoids co-cultured with U251),PTEN expression (proteomics) (PTEN),PDGF expression (Western blot) (PDGF)
"Cc1ccc(F)c(NC(=O)Nc2ccc(-c3cncnc3)cc2)c1 [Example 2, 1-(2-fluoro-5-methylphenyl)-3-(4-(pyrimidin-5-yl)phenyl)urea]",reduced proliferation,reduced proliferation,increased expression of pre-miR-10b,increased expression of pre-miR-10b,,,,,,,
"Cc1ccc(F)c(NC(=O)Nc2ccc(-c3cccc4cn[nH]c34)cc2)c1 [Example 4, 1-(4-(1H-indazol-7-yl)phenyl)-3-(2-fluoro-5-methylphenyl)urea]",,,increasing precursor miRNA transcript,increasing precursor miRNA transcript,significant difference in proliferation,statistically significant effect,significant difference in proliferation,Significant downregulation of miR-10b,Significant downregulation of miR-10b,significantly upregulated,low to very slight variations
